# Test results published in patent US8735414B2 (priority 2009, dated 2014).
# Legend:
# [1] = system: bicistronic HCV replicon (replicon RNA, GenBank Accession No. AJ242654); experiment: HCV Replicon Assay; type: cell-based; details: Hepatitis C virus, 72 h, read-out: Replicon IC50
Structure (SMILES),IC50 [1],melting point
"CC(C)(NS(=O)(=O)c1ccc(-c2c(C#N)c3ccc(OC(F)F)cc3n2-c2ccccc2)nc1)C(F)(F)F [compound 612, 6-[3-cyano-6-(difluoromethoxy)-1-phenyl-1H-indol-2-yl]-N-(1,1,1-trifluoro-2-methylpropan-2-yl)pyridine-3-sulfonamide]",< 500 nM,218 to 220 °C
"CCc1cc2c(cc1F)c(C#N)c(-c1ncc(S(=O)(=O)N[C@@H](C)C(F)(F)F)cc1C)n2-c1ncccn1 [compound 867, 6-[3-cyano-6-ethyl-5-fluoro-1-(pyrimidin-2-yl)-1H-indol-2-yl]-5-methyl-N-[(2S)-1,1,1-trifluoropropan-2-yl]pyridine-3-sulfonamide]",< 500 nM,192 to 198 °C
"Cc1c(F)cc2c(C#N)c(-c3ccc(S(=O)(=O)N[C@H](C)C(F)(F)F)cn3)n(C3CCCC3)c2c1F [compound 653, 6-(3-cyano-1-cyclopentyl-5,7-difluoro-6-methyl-1H-indol-2-yl)-N-[(2R)-1,1,1-trifluoropropan-2-yl]pyridine-3-sulfonamide]",< 500 nM,212 to 217 °C
"Cc1cc2c(cc1F)c(C#N)c(-c1ccc(S(=O)(=O)N[C@@H](C)C(F)(F)F)cn1)n2-c1cncnc1 [compound 894, 6-[3-cyano-5-fluoro-6-methyl-1-(pyrimidin-5-yl)-1H-indol-2-yl]-N-[(2S)-1,1,1-trifluoropropan-2-yl]pyridine-3-sulfonamide]",< 500 nM,198 to 202 °C
"Cc1c(F)cc2c(C#N)c(-c3ccc(S(=O)(=O)NC(C)(C)C(F)(F)F)cn3)n(C3CCCC3)c2c1F [compound 580, 6-(3-cyano-1-cyclopentyl-5,7-difluoro-6-methyl-1H-indol-2-yl)-N-(1,1,1-trifluoro-2-methylpropan-2-yl)pyridine-3-sulfonamide]",< 500 nM,226 to 232 °C
"Cc1ccc2c(C#N)c(-c3ccc(S(=O)(=O)N[C@H](C)C(F)(F)F)cn3)n(C3CCC3)c2c1 [compound 192, 6-(3-cyano-1-cyclobutyl-6-methyl-1H-indol-2-yl)-N-[(2R)-1,1,1-trifluoropropan-2-yl]pyridine-3-sulfonamide]",< 500 nM,204 to 208 °C
"C[C@H](NS(=O)(=O)c1ccc(-c2c(C#N)c3ccc(F)cc3n2C2CCCCC2)nc1)C1CC1 [compound 262, 6-(3-cyano-1-cyclohexyl-6-fluoro-1H-indol-2-yl)-N-[(1S)-1-cyclopropylethyl]pyridine-3-sulfonamide]",< 500 nM,161 to 162 °C
"N#Cc1c(-c2ccc(S(N)(=O)=O)cn2)n(C2CCC2)c2cc(OC(F)F)c(F)cc12 [compound 722, 6-[3-cyano-1-cyclobutyl-6-(difluoromethoxy)-5-fluoro-1H-indol-2-yl]pyridine-3-sulfonamide]",< 500 nM,172 to 175 °C
"C[C@H](NS(=O)(=O)c1ccc(-c2c(C#N)c3cc(C(F)(F)F)ccc3n2-c2cnccn2)nc1)C(F)(F)F [compound 897, 6-[3-cyano-1-(pyrazin-2-yl)-5-(trifluoromethyl)-1H-indol-2-yl]-N-[(2S)-1,1,1-trifluoropropan-2-yl]pyridine-3-sulfonamide]",< 500 nM,255 to 258 °C
"CCc1cc2c(cc1F)c(C(N)=O)c(-c1ccc(S(=O)(=O)N[C@@H](C)C(F)(F)F)cn1)n2-c1cnccn1 [compound 994, 6-ethyl-5-fluoro-1-(pyrazin-2-yl)-2-(5-{[(2S)-1,1,1-trifluoropropan-2-yl]sulfamoyl}pyridin-2-yl)-1H-indole-3-carboxamide]",< 500 nM,120 to 127 °C
"C[C@@H](NS(=O)(=O)c1ccc(-c2c(C(N)=O)c3cc(F)c(OC(F)F)cc3n2C2CCCC2)nc1)C(F)(F)F [compound 718, 1-cyclopentyl-6-(difluoromethoxy)-5-fluoro-2-(5-{[(2R)-1,1,1-trifluoropropan-2-yl]sulfamoyl}pyridin-2-yl)-1H-indole-3-carboxamide]",< 500 nM,218 to 220 °C
"C[C@H](NS(=O)(=O)c1ccc(-c2c(C(=O)O)c3cc(F)ccc3n2C2CCCCC2)nc1)C(F)(F)F [compound 741, 1-cyclohexyl-5-fluoro-2-(5-{[(2S)-1,1,1-trifluoropropan-2-yl]sulfamoyl}pyridin-2-yl)-1H-indole-3-carboxylic acid]",500 to 2000 nM,216 to 220 °C
"CC(C)NS(=O)(=O)c1cnc(-c2c(C#N)c3cc(Cl)ccc3n2C2CCCC2)nc1 [compound 314, 2-(5-chloro-3-cyano-1-cyclopentyl-1H-indol-2-yl)-N-(propan-2-yl)pyrimidine-5-sulfonamide]",< 500 nM,239 to 245 °C
"C[C@H](NS(=O)(=O)c1ccc(-c2c(C#N)c3cc(Cl)ccc3n2C2CCCCC2)nc1)C(F)(F)F [compound 462, 6-(5-chloro-3-cyano-1-cyclohexyl-1H-indol-2-yl)-N-[(2S)-1,1,1-trifluoropropan-2-yl]pyridine-3-sulfonamide]",< 500 nM,220 to 222 °C
"C[C@H](NS(=O)(=O)c1ccc(-c2c(C#N)c3cc(Cl)ccc3n2C2CCC2)nc1)C1CC1 [compound 119, 6-(5-chloro-3-cyano-1-cyclobutyl-1H-indol-2-yl)-N-[(1S)-1-cyclopropylethyl]pyridine-3-sulfonamide]",< 500 nM,154 to 155 °C
"Cc1cc(NS(=O)(=O)C(C)(C)C)ncc1-c1c(C(N)=O)c2cc(F)c(OC(F)F)cc2n1[C@H](C)C1CC1 [compound 1087, 2-{6-[(tert-butylsulfonyl)amino]-4-methylpyridin-3-yl}-1-[(1R)-1-cyclopropylethyl]-6-(difluoromethoxy)-5-fluoro-1H-indole-3-carboxamide]",< 500 nM,250 to 254 °C
"CCc1cc2c(cc1F)c(C#N)c(-c1ccc(S(=O)(=O)N[C@@H](C)C(F)(F)F)cn1)n2-c1ccncn1 [compound 964, 6-[3-cyano-6-ethyl-5-fluoro-1-(pyrimidin-4-yl)-1H-indol-2-yl]-N-[(2S)-1,1,1-trifluoropropan-2-yl]pyridine-3-sulfonamide]",< 500 nM,202 to 206 °C
"CCS(=O)(=O)Nc1ccc(-c2c(C#N)c3ccc(OC(C)C)cc3n2CC2CC2)nc1 [compound 279, N-{6-[3-cyano-1-(cyclopropylmethyl)-6-(propan-2-yloxy)-1H-indol-2-yl]pyridin-3-yl}ethanesulfonamide]",500 to 2000 nM,149 to 154 °C
"C[C@H](NS(=O)(=O)c1ccc(-c2c(C#N)c3cc(F)c(OC(F)F)cc3n2-c2ccccn2)nc1)C(F)(F)F [compound 657, 6-[3-cyano-6-(difluoromethoxy)-5-fluoro-1-(pyridine-2-yl)-1H-indol-2-yl]-N-[(2S)-1,1,1-trifluoropropan-2-yl]pyridine-3-sulfonamide]",< 500 nM,161 to 163 °C
"Cc1ccc2c(c1)c(C#N)c(-c1ccc(S(=O)(=O)N[C@@H](C)C(F)(F)F)cn1)n2C1CCCCC1 [compound 560, 6-(3-cyano-1-cyclohexyl-5-methyl-1H-indol-2-yl)-N-[(2S)-1,1,1-trifluoropropan-2-yl]pyridine-3-sulfonamide]",< 500 nM,175 to 180 °C
